Measured values as given in ChEMBL document CHEMBL1201862, “PubChem BioAssay data set” (2004).
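The compound was tested at five concentrations on cells cultured in 96-well plates, with a 48-hour exposure period. Abbreviation: GI50, concentration required for 50% inhibition of growth.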 Active and inactive are the calls of the source. Cut-off read from the data, not from the text of the source: active = GI50 up to about 1.1 µM and inactive = higher.

What was measured:
Experiment in all cases: NCI tumour cell line growth inhibition, 48 h
SF-295 = system: SF-295
OVCAR-8 = system: OVCAR-8
UO-31 = system: UO-31
A549 = system: A549
HCC 2998 = system: HCC 2998
PC-3 = system: PC-3
Malme-3M = system: Malme-3M
ACHN = system: ACHN
MOLT-4 = system: MOLT-4
MDA-MB-435 = system: MDA-MB-435
TK-10 = system: TK-10
HCT-116 = system: HCT-116
RXF 393 = system: RXF 393
M14 = system: M14
HOP-92 = system: HOP-92
CCRF-CEM = system: CCRF-CEM
HL-60 = system: HL-60
UACC-257 = system: UACC-257
Hs-578T = system: Hs-578T

Measured: GI50

CNC(=O)CCNC(=O)CCC(=O)N(C)C
inactive: SF-295 > 100 µM | OVCAR-8 > 100 µM | UO-31 > 100 µM | A549 > 100 µM | HCC 2998 > 100 µM | PC-3 > 100 µM | Malme-3M 15.7 µM | ACHN > 100 µM | MOLT-4 > 100 µM | MDA-MB-435 > 100 µM | TK-10 > 100 µM | HCT-116 > 100 µM | RXF 393 > 100 µM | M14 > 100 µM

C=C(N=[N+]=[N-])c1cn(C2CC(O)C(CO)O2)c(=O)[nH]c1=O (stereo not drawn)
inactive: SF-295 > 100 µM | OVCAR-8 > 100 µM | UO-31 > 100 µM | HOP-92 > 100 µM | A549 > 100 µM | CCRF-CEM > 100 µM | HCC 2998 > 100 µM | Malme-3M > 100 µM | ACHN > 100 µM | MOLT-4 > 100 µM | TK-10 > 100 µM | HL-60 > 100 µM | HCT-116 > 100 µM | RXF 393 > 100 µM | M14 > 100 µM

COc1ccc(Cc2c3cc(OC)c(OC)cc3cc[n+]2C)cc1
inactive: UACC-257 20.4 µM | SF-295 5.73 µM | OVCAR-8 6.85 µM | UO-31 > 34 µM | HOP-92 23.1 µM | A549 9.35 µM | HCC 2998 > 25.2 µM | Malme-3M 27.2 µM | ACHN > 29.2 µM | MOLT-4 > 100 µM | TK-10 > 52.5 µM | HL-60 1.21 µM | HCT-116 15 µM | RXF 393 > 25.6 µM | M14 > 21.7 µM

Cc1c(/C=N/N(C)C)oc2c1cc(O)c1ncccc12
inactive: UACC-257 5.36 µM | SF-295 9.91 µM | OVCAR-8 4.07 µM | UO-31 2.08 µM | HOP-92 10.7 µM | A549 5.01 µM | CCRF-CEM 1.27 µM | HCC 2998 14 µM | Malme-3M 11.2 µM | ACHN 7.89 µM | MOLT-4 2.59 µM | TK-10 28.8 µM | HL-60 2.13 µM | HCT-116 2.99 µM | RXF 393 5.97 µM | M14 3.25 µM

C/C(CCn1[nH]c(=O)ccc1=O)=N\NC(=O)C(=O)NN
inactive: UACC-257 > 100 µM | SF-295 > 100 µM | OVCAR-8 > 100 µM | UO-31 > 100 µM | A549 > 100 µM | CCRF-CEM > 100 µM | HCC 2998 > 100 µM | Malme-3M > 100 µM | ACHN > 100 µM | MOLT-4 > 100 µM | TK-10 > 100 µM | HL-60 > 100 µM | RXF 393 > 100 µM | M14 > 100 µM

Cc1cccc(C(=O)c2cccc3ccccc23)c1C(=O)O
inactive: UACC-257 > 100 µM | SF-295 > 100 µM | OVCAR-8 > 100 µM | UO-31 > 100 µM | HOP-92 > 100 µM | A549 > 100 µM | CCRF-CEM > 100 µM | Malme-3M > 100 µM | ACHN > 100 µM | MOLT-4 > 100 µM | TK-10 > 100 µM | HCT-116 > 100 µM | RXF 393 > 100 µM | M14 > 100 µM

O=[N+]([O-])c1ccc(COc2cccc3cccnc23)cc1
inactive: UACC-257 20.2 µM | SF-295 26.6 µM | OVCAR-8 20.5 µM | UO-31 10.1 µM | HOP-92 31 µM | A549 31 µM | CCRF-CEM 3.94 µM | HCC 2998 22.3 µM | Malme-3M 33 µM | ACHN 19.6 µM | MOLT-4 4.98 µM | TK-10 15.8 µM | HL-60 5.69 µM | HCT-116 25.2 µM | RXF 393 43.5 µM | M14 10.6 µM

CCC(C)CN1C(=O)NC(Cc2ccccc2)C1=O (stereo not drawn)
inactive: UACC-257 22.1 µM | SF-295 > 100 µM | OVCAR-8 > 100 µM | UO-31 > 100 µM | HOP-92 19.4 µM | A549 > 100 µM | HCC 2998 > 100 µM | Malme-3M > 100 µM | ACHN > 100 µM | TK-10 > 100 µM | HL-60 > 10 µM | RXF 393 > 100 µM | M14 > 100 µM

Nc1nc(N)c2nc(-c3ccco3)cnc2n1
inactive: UACC-257 92.7 µM | SF-295 60.3 µM | OVCAR-8 > 100 µM | UO-31 38.5 µM | HOP-92 40 µM | A549 34.5 µM | CCRF-CEM 43.1 µM | HCC 2998 > 100 µM | Malme-3M 46.5 µM | ACHN 59.4 µM | MOLT-4 44.5 µM | TK-10 88.1 µM | HL-60 28.3 µM | HCT-116 34.4 µM | RXF 393 26.2 µM | M14 50 µM

O=C(O)[C@@H](NS(=O)(=O)c1ccc(F)cc1)c1ccccc1
inactive: UACC-257 > 100 µM | SF-295 > 100 µM | OVCAR-8 > 100 µM | UO-31 > 100 µM | A549 > 100 µM | CCRF-CEM > 100 µM | HCC 2998 > 100 µM | Malme-3M > 100 µM | ACHN > 100 µM | MOLT-4 > 100 µM | TK-10 > 100 µM | HCT-116 > 100 µM | RXF 393 > 100 µM | M14 > 100 µM

COC(=O)[C@H]1N[C@@H](C(=O)OC)C23CCC[C@H]2CC[C@]1(C(OC)OC)C3
inactive: UACC-257 > 100 µM | SF-295 > 100 µM | OVCAR-8 > 100 µM | UO-31 > 100 µM | HOP-92 > 100 µM | A549 > 100 µM | CCRF-CEM > 100 µM | HCC 2998 > 100 µM | Malme-3M > 100 µM | ACHN > 100 µM | MOLT-4 > 100 µM | TK-10 > 100 µM | HL-60 > 100 µM | HCT-116 > 100 µM | M14 > 100 µM

Nc1nc(SCc2ccccc2Cl)c2[nH]cnc2n1
inactive: UACC-257 56 µM | SF-295 58.6 µM | OVCAR-8 55.7 µM | UO-31 77.6 µM | A549 73.1 µM | CCRF-CEM 54.5 µM | HCC 2998 > 100 µM | Malme-3M 70.8 µM | ACHN 31.5 µM | MOLT-4 34.6 µM | TK-10 18.8 µM | HL-60 36.4 µM | HCT-116 59.8 µM | RXF 393 23.1 µM | M14 > 100 µM

CCOC(=O)C(=O)NCCCN1CCOCC1
inactive: UACC-257 > 100 µM | SF-295 > 100 µM | OVCAR-8 > 100 µM | UO-31 > 100 µM | HOP-92 > 100 µM | A549 > 100 µM | CCRF-CEM > 100 µM | HCC 2998 > 100 µM | Malme-3M > 100 µM | ACHN > 100 µM | MOLT-4 > 100 µM | TK-10 > 100 µM | HL-60 > 100 µM | HCT-116 > 100 µM | RXF 393 > 100 µM | M14 > 100 µM

Nc1nc(=O)[nH]c2c1cnn2C1CCCCO1 (stereo not drawn)
inactive: UACC-257 > 100 µM | SF-295 > 100 µM | OVCAR-8 > 100 µM | UO-31 > 100 µM | HOP-92 > 100 µM | A549 > 100 µM | CCRF-CEM > 100 µM | HCC 2998 > 100 µM | Malme-3M > 100 µM | ACHN > 100 µM | MOLT-4 > 100 µM | TK-10 > 100 µM | HL-60 38.4 µM | HCT-116 > 100 µM | RXF 393 56 µM | M14 > 100 µM

C=C=CC(NC(=O)c1ccccc1)(C(=O)O)C(F)(F)F (stereo not drawn)
inactive: UACC-257 > 100 µM | SF-295 > 100 µM | OVCAR-8 > 100 µM | HOP-92 > 100 µM | A549 > 100 µM | CCRF-CEM > 100 µM | HCC 2998 > 100 µM | Malme-3M > 100 µM | ACHN > 100 µM | MOLT-4 > 100 µM | TK-10 > 100 µM | HL-60 > 100 µM | HCT-116 > 100 µM | RXF 393 > 100 µM | M14 > 100 µM

Nc1ncnc2c1ncn2C1CCC(CO)O1 (stereo not drawn)
inactive: UACC-257 > 100 µM | SF-295 > 79.4 µM | OVCAR-8 > 79.4 µM | UO-31 > 100 µM | HOP-92 > 79.8 µM | A549 > 100 µM | CCRF-CEM > 100 µM | HCC 2998 > 77.4 µM | Malme-3M > 100 µM | MOLT-4 > 100 µM | HL-60 > 100 µM | HCT-116 > 100 µM | RXF 393 > 100 µM

COc1ccc(/C=C/c2cc(OC)c(OCc3ccccc3)c(OC)c2)cc1
inactive: UACC-257 99.1 µM | OVCAR-8 > 100 µM | UO-31 52.1 µM | HOP-92 89.7 µM | A549 > 100 µM | CCRF-CEM > 100 µM | HCC 2998 > 100 µM | Malme-3M > 100 µM | ACHN > 100 µM | MOLT-4 29 µM | HCT-116 > 100 µM | M14 87.5 µM

Cc1c2c(n(CCc3ccc(Cl)cc3)c1C)NN=C(C#N)S2(=O)=O
inactive: UACC-257 > 100 µM | UO-31 > 100 µM | A549 > 100 µM | Hs-578T > 100 µM | HCC 2998 > 100 µM | PC-3 > 100 µM | Malme-3M 51.8 µM | ACHN > 100 µM | MOLT-4 69.3 µM | MDA-MB-435 42.2 µM | TK-10 > 100 µM | HCT-116 > 100 µM | M14 91.4 µM

C#CCC1(C(=O)OCC)C(=O)c2ccccc2N(C)C1=O (stereo not drawn)
inactive: SF-295 > 100 µM | OVCAR-8 > 100 µM | UO-31 30.8 µM | HOP-92 36.6 µM | CCRF-CEM > 100 µM | Malme-3M > 100 µM | ACHN 93.5 µM | MOLT-4 45.2 µM | TK-10 > 100 µM | HL-60 60.1 µM | M14 > 100 µM
